# Laboratory results as given in patent US20260137668A1, “EZH2 INHIBITION THERAPIES FOR THE TREATMENT OF BRCA1-ASSOCIATED PROTEIN (BAP1) MUTATED CANCERS” (Constellation Pharmaceuticals, Inc., priority 2022, published 2026).
# What was measured:
# [1] = test system: H2452; assay: CellTiter-Glo 2.0 long-term cell viability assay; format: cell-based; conditions: Homo sapiens, H2452, BAP1 mutant
# Protocol: (§1) The ability of Compound 1 to selectivity suppress mesothelioma cancer cell viability was assessed in a panel of cell lines after 7, 14 and 21 days of treatment with Compound 1. Cell viability was determined using CellTiter-Glo®2 luminescent cell viability assay.
# (§2) Cell culture conditions. MSTO-211H, H2052, H2452, H28, H226 cell lines were obtained from ATCC (Manassas, VA) and were grown in media as recommended by the vendor. For long-term assays, cells were plated in 96-well plates containing. Compound 1. Cell lines were treated with a dose titration of Compound 1 starting at 2 μM top concentration.
# (§3) Cellular assay—assessment of cell viability. Relative cell numbers were assessed by CellTiter-Glo® 2.0 luminescent cell viability assay (Promega Catalog #G9243) using a Perkin Elmer EnVision Alpha Reader (Model #2104, Waltham, MA). 50 μL of CellTiter-Glo® 2.0 reagent was added to each well containing 100 μL cell suspension and incubated for 30 min at RT with shaking at low speed. GraphPad Prism was used for curve fitting and GI50 determinations.
# [2] = test system: H226; assay: CellTiter-Glo 2.0 long-term cell viability assay; format: cell-based; conditions: Homo sapiens, H226, BAP1 mutant
# Protocol: as §1, §2, §3
# [3] = test system: MSTO-211H; assay: CellTiter-Glo 2.0 long-term cell viability assay; format: cell-based; conditions: Homo sapiens, BAP1 wildtype
# Protocol: as §1, §2, §3
# [4] = test system: H2052; assay: CellTiter-Glo 2.0 long-term cell viability assay; format: cell-based; conditions: Homo sapiens, H2052, BAP1 wildtype
# Protocol: as §1, §2, §3
# [5] = test system: H28; assay: CellTiter-Glo 2.0 long-term cell viability assay; format: cell-based; conditions: Homo sapiens, H28, BAP1 mutant
# Protocol: as §1, §2, §3
# [6] = test system: PXF 2443; assay: pleural mesothelioma PDX model, tumor growth inhibition; format: in vivo, NMRI nu/nu mice; conditions: PXF 2443, 75 mg/kg p.o. QD; without a statistically significant reduction in tumor volume
# Protocol: (§4) Compound 1 was evaluated in 6 patient-derived xenograft (PDX) models of pleural mesothelioma with BAP1 alterations (Table 3) implanted subcutaneously in immunodeficient mice (NSG mice in the case of tumor model PXF 2328, NMRI nu/nu mice for all other tumor models). Each experiment had two groups of generally five mice each enrolled at tumor volumes in the range of 53.9-198.9 mm^3. The first group was a vehicle control group, while the second group was treated with Compound 1, administered orally (p.o.) once daily (QD) at a dose level of 75 mg/kg. The duration of the experiments ranged between 30 and 65 days.
# (§5) Antitumor efficacy of all groups was assessed using the vehicle control group as a reference. Tumor growth inhibition was determined by the comparison of tumor growth in the test groups with the vehicle control group and is expressed as the maximum tumor growth inhibition (TGI) value in percent. The statistical significance of differences between test and control groups was assessed using the non-parametric U-test.
# [7] = test system: PXF 1118; assay: as above; format: in vivo, NMRI nu/nu mice; conditions: PXF 1118, 75 mg/kg p.o. QD; without a statistically significant reduction in tumor volume
# Protocol: as §4, §5
# [8] = test system: PXF 541; assay: as above; format: in vivo, NMRI nu/nu mice; conditions: PXF 541, 75 mg/kg p.o. QD; statistically significant reduction in tumor volume vs vehicle (U-test)
# Protocol: as §4, §5
# [9] = test system: PXF 537; assay: as above; format: in vivo, NMRI nu/nu mice; conditions: PXF 537, 75 mg/kg p.o. QD; statistically significant reduction in tumor volume vs control
# Protocol: as §4, §5
# [10] = test system: PXF 680; assay: as above; format: in vivo, NMRI nu/nu mice; conditions: PXF 680, 75 mg/kg p.o. QD; statistically significant reduction in tumor volume vs vehicle (U-test)
# Protocol: as §4, §5
# [11] = test system: PXF 2328; assay: as above; format: in vivo; conditions: PXF 2328 implanted in NSG mice, 75 mg/kg p.o. QD
# Protocol: as §4, §5
# [12] = test system: pleural mesothelioma PDX models with BAP1 alterations; assay: panel of 6 PDX models of pleural mesothelioma with BAP1 alterations; format: in vivo, mice; conditions: 75 mg/kg p.o. QD
# Protocol: as §4, §5
# [13] = test system: pleural or peritoneal BAP1 loss mesothelioma; assay: human clinical phase 2 study, Compound 1 monotherapy, response by cancer cohort; format: in vivo; conditions: intermediate cut-off date
# Protocol: As part of a human clinical phase 2 study, subjects with pleural or peritoneal BAP1 loss mesothelioma were administered 350 mg/day Compound 1 for up to about 7.5 months (FIG. 1). Compound 1 was administered orally as a single agent (monotherapy). The cancers in each subject were known to have BAP1 mutations as determined by next generation sequencing (NGS) or local immunohistochemistry (IHC) testing prior to treatment. A complete response is characterized as disappearance of all lesions, a partial response is characterized as at least a 30% decrease in the sum of the longest diameter (LD) of target lesions, taking as reference the baseline sum LD; stable disease is characterized as neither sufficient shrinkage to qualify for partial response nor sufficient increase to qualify for progressive disease, taking as reference the smallest sum diameters; and progressive disease is characterized as at least a 20% increase in the sum of the LD of target lesions, taking as reference the smallest sum LD recorded since the treatment started or the appearance of one or more new lesions.
# [14] = 350 mg/day oral monotherapy, efficacy evaluable patients N = 9
smiles,measurement,setting,value
"COC1CN([C@H]2CC[C@H]([C@@]3(C)Oc4c(Cl)cc(C(=O)NCc5c(SC)cc(C)[nH]c5=O)c(C)c4O3)CC2)C1 [Compound 1, (R)-7-chloro-2-((1r,4R)-4-(3-methoxyazetidin-1-yl)cyclohexyl)-2,4-dimethyl-N-((6-methyl-4-(methylthio)-2-oxo-1,2-dihydropyridin-3-yl)methyl)benzo[d][1,3]dioxole-5-carboxamide]",GI50,"[1]; NCI-H2452, 168 h, Day 7",> 2000 nM
same,GI50,"[1]; NCI-H2452, 336 h, Day 14",6 nM
same,GI50,"[1]; NCI-H2452, 504 h, Day 21",5 nM
same,GI50,"[2]; NCI-H226, 168 h, Day 7",> 2000 nM
same,GI50,"[2]; NCI-H226, 336 h, Day 14",> 2000 nM
same,GI50,"[2]; NCI-H226, 504 h, Day 21",> 2000 nM
same,GI50,"[3]; 168 h, Day 7",> 2000 nM
same,GI50,"[3]; 336 h, Day 14",> 2000 nM
same,GI50,"[3]; 504 h, Day 21",> 2000 nM
same,GI50,"[4]; NCI-H2052, 168 h, Day 7",> 2000 nM
same,GI50,"[4]; NCI-H2052, 336 h, Day 14",> 2000 nM
same,GI50,"[4]; NCI-H2052, 504 h, Day 21",> 2000 nM
same,GI50,"[5]; NCI-H28, 168 h, Day 7",> 2000 nM
same,GI50,"[5]; NCI-H28, 336 h, Day 14",234 nM
same,GI50,"[5]; NCI-H28, 504 h, Day 21",45 nM
same,effect on tumor growth,[6],slowed growth
same,effect on tumor growth,[7],slowed growth
same,maximum tumor growth inhibition (TGI),[8],> 100%
same,effect on tumor growth,[9],almost stasis
same,maximum tumor growth inhibition (TGI),[10],> 100%
same,effect on tumor growth,[11],inactive
same,PDX models with a relevant TGI of greater than 50%,[12],4 out of the 6
same,Complete response,[13]; [14],0 n (%)
same,Partial response,[13]; [14],2 (22.2) n (%)
same,Progressive disease,[13]; [14],3 (33.3) n (%)
same,Stable disease,[13]; [14],4 (44.4) n (%)
same,patients showing (partial) response and stable disease,[13],> 60%
